# Patent US20120058507A1, “Clonal Derivation and Cell Culture quality Control Screening Methods” (SRU Biosystems, Inc., priority 2009, published 2012)
# Key:
# Format in all cases: cell-based
# [1] = molecular target: T1, M4 muscarinic receptor expressing cells (M4R) (Homo sapiens, UniProt P08173); experiment: Label-free endpoint response on BIND Reader, M4R cells; details: for Endpoint response of M4R cells to ligand: first addition, 10uM carbachol or 50 nM ET-1, M4R cells plated alone
# T1 sequence (P08173 1-479): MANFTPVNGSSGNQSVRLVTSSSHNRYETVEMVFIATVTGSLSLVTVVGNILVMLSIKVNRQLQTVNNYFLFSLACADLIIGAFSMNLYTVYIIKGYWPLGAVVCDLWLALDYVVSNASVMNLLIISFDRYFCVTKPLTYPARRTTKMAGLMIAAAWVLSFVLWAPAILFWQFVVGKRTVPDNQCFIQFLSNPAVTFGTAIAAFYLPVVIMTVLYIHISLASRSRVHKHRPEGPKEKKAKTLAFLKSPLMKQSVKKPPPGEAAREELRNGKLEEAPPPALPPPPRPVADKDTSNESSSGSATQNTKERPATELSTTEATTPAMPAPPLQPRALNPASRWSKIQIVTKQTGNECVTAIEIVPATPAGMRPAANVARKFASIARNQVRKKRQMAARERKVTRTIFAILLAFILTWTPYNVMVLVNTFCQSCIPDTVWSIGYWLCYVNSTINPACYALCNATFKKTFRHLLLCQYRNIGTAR
# Procedure: (§1) The response of the two or more cell types to the stimuli or test reagent can be also detected by a BIND® READER (colorimetric resonant reflectance biosensor system). For example, Endothelin receptor expressing cells (ETaR) and M4 muscarinic receptor expressing cells (M4R) were plated on CA2 cellular matrix-coated colorimetric resonant reflectance biosensor plates in starvation media. The cells were pre-treated with antagonists (either atropine to inhibit M4 or BMS to inhibit ETaR) for 30 min. […] Data are referenced to buffer controls.
# (§2) The ETaR cells and M4R cells were then treated with a second ligand.
# M5/RBL cells = experiment: Label-free response of 1:1 mixed RBL and M5/RBL cells on BIND SCANNER; details: 1:1 mixed population of RBL+M5/RBL cells
# Procedure: RBL and M5/RBL cells were mixed in a 1:1 ratio and were plated in colorimetric resonant reflectance biosensor wells. The cells were allowed to attach to the biosensor and the attachment reaction was detected on a BIND® SCANNER. Acetylcholine was added to the biosensor surface. […] Approximately 50% of a 1:1 mixed population of RBL+M5/RBL cells responded to acetylcholine. The responding cells can be gated and analyzed for quantitative responses (e.g., responses to additional test reagents or stimuli) independent of non-responding population. Therefore, the presence of different types of cells on a biosensor can be detected when their response to a ligand is known.
# [2] = molecular target: T2, Endothelin receptor expressing cells (ETaR) (Homo sapiens, UniProt P25101); experiment: Label-free endpoint response on BIND Reader, ETaR cells; details: first addition; 10uM carbachol or 50 nM ET-1; ETaR cells plated alone
# T2 sequence (P25101 21-427): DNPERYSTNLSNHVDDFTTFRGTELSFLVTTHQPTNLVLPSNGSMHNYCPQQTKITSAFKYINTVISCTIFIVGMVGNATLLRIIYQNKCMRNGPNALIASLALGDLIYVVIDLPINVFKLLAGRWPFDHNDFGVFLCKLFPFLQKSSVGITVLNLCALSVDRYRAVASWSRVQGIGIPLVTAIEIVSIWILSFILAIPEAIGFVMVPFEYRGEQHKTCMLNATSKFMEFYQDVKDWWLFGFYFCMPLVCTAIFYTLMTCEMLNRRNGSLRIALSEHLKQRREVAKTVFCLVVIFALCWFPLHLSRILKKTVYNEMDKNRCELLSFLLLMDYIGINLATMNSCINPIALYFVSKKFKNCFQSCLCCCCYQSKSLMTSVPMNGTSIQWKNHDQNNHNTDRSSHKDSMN
# Procedure: as §1, §2
# CXCR4 = molecular target: T3, CXCR4 (Homo sapiens, UniProt P61073); experiment: Label-free response to SDF-1α on BIND READER; details: THP-1 cells, OEM cells, MSC cells; different concentrations
# T3 construct: endogenous in cells; host or cells: THP-1 cells, 'OEM' cells, MSC cells
# Text: SDF-1α binds to and activates CXCR4, a GPCR. Stem cells will move to tissues releasing gradients of SDF-1α. Damaged tissue releases elevated levels of SDF-1α resulting in increased migration of mesenchymal stem cells to sites of injury. Chemotactic factors induce significant changes in the actin cytoskeleton of cells upon receptor activation. These changes are manifested as directional movement when the chemokine is presented as a gradient. SDF-1α induces the migration of mesenchymal stem cells and osteoblast progenitor cells. Overexpression of CXCR4 results in improved MSC migration and homing to sites of vascular injury.
# Rat MSC cells = experiment: Rat MSC movement on fibronectin-coated biosensor; details: attachment signal zeroed out
# Procedure: Rat MSC cells were added to a biosensor coated with fibronectin. Cell attachment was detected on a colorimetric resonant reflectance biosensor at 3 hours and 16 hours. The attachment signal was zeroed out and the cells were stimulated with SDF-1α or were not stimulated. Movement of the cells can be seen in the right panels of FIG. 12. The darker spots are where the cells were prior to detection and the lighter spots are where the cells are when the reaction was detected. […] An enhanced signal can be seen on the cell edges where movement and/or cell adhesion is occurring. The enhanced signal correlates with the leading edge of the cells as they move across the biosensor as evidenced by time lapse imaging. This is consistent with extracellular matrix-integrin engagement of the cells. […] An approximately 7 to 10 fold improvement in signal to noise is observed.
# [3] = molecular target: cells expressing α4/β1 integrin receptors (Homo sapiens, UniProt P05556+P13612); experiment: Cell attachment PWV shift on ECM ligand coated wells; details: for PWV shift of attached cells: immobilized on biosensor surface
# Text: For example, cells expressing α4/β1 integrin receptors, which are known to bind to fibronectin ligands, but not to collagen or laminin ligands, generate a PWV shift on fibronectin coated wells that is about 8 to 10 times greater than the PWV shift observed on collagen or laminin surfaces.
# rat MSC cell = experiment: Rat MSC attachment to ECM-coated biosensors; details: ovalbumin, fibronectin, laminin or collagen biosensors
# Text: In certain cases cells, such as stem cell or primary cells, have varying reactions to ligands depending upon what extracellular matrix component is present on the surface of the biosensor. This preference can be determined for each type of cell. […] The mP-M5 and mP-M4 cells show the best reaction to the ligands when they are on biosensors comprising fibronectin or collagen. […] Cells can be tested to determine the best ligand/ECM coating for attachment to the biosensor.
# Sequence of cells expressing α4/β1 integrin receptors (P13612 34-1032): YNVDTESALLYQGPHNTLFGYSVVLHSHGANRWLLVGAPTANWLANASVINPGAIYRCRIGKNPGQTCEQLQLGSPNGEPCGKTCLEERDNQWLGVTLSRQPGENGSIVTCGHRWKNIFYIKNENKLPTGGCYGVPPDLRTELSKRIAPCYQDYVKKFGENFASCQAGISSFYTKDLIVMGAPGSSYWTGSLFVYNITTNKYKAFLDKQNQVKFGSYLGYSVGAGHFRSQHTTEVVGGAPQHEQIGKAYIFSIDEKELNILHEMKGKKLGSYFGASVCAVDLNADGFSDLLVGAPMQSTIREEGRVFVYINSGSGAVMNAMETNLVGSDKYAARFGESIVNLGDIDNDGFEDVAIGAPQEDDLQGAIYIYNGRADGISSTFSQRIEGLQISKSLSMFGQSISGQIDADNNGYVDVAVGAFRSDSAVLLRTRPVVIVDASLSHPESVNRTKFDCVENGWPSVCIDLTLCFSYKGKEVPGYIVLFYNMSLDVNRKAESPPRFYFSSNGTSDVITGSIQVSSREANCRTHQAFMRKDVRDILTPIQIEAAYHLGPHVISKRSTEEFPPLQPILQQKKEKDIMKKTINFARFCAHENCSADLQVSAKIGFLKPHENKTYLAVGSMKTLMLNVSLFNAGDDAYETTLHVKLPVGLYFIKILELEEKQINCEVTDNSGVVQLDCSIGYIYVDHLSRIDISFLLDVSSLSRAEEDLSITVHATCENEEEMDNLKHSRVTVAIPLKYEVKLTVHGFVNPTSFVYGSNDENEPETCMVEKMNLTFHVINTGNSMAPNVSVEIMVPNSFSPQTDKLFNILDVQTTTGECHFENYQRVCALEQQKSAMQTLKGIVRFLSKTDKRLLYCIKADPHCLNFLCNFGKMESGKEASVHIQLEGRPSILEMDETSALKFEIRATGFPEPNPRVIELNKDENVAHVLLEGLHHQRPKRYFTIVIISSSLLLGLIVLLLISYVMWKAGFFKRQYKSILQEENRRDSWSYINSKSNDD
# Sequence of cells expressing α4/β1 integrin receptors (P05556 21-798): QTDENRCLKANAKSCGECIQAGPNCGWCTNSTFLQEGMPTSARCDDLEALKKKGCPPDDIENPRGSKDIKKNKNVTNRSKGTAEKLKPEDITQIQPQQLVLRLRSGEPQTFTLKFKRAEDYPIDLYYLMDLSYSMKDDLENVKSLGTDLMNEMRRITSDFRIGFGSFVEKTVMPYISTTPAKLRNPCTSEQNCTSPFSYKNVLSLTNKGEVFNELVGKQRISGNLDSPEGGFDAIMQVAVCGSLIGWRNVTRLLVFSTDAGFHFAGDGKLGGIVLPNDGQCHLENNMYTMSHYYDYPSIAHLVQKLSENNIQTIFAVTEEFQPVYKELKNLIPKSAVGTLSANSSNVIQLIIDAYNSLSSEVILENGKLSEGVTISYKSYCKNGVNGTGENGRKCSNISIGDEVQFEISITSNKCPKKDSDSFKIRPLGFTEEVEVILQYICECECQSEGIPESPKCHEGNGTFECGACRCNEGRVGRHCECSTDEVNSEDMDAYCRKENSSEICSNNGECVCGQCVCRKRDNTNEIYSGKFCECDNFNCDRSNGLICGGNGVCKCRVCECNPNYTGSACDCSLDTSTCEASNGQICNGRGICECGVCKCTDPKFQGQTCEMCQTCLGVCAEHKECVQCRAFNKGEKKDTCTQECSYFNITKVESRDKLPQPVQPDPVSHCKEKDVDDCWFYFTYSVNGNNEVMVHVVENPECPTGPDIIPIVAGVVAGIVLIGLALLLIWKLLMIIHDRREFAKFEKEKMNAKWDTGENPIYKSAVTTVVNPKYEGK
# T3 sequence (P61073 whole entry, species assumed): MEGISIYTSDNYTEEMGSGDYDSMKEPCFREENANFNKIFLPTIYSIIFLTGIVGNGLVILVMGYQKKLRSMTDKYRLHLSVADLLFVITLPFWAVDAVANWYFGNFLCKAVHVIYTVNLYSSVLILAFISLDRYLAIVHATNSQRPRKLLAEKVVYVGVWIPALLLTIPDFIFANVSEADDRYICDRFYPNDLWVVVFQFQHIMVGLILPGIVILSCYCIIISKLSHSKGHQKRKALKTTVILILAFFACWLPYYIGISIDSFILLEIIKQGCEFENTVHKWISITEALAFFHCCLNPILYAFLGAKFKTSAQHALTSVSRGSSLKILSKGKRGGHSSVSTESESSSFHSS
compound,measurement,setting,value
"CN1[C@@H]2CC[C@H]1C[C@@H](OC(=O)C(CO)c1ccccc1)C2 (stereo partly drawn) [Atropine, atropine]",Inhibition of carbachol response in M4R cells,"[1]; antagonist pre-treatment 30 min, then 10uM carbachol",completely inhibited
CC(=O)OCC[N+](C)(C)C [acetylcholine],Fraction of mixed cell population responding,M5/RBL cells,Approximately 50%
C[N+](C)(C)CCOC(N)=O [carbachol],Endpoint response of ETaR cells to ligand,[2],not to carbachol
same,Endpoint response of M4R cells to ligand,[1],respond to carbachol
same,Response of M4R cells to second ligand,"[1]; second addition, after ET-1 stimulation","respond to carbachol, even after ET-1 stimulation"
ET-1: ligand to which Endothelin receptor expressing cells (ETaR) respond,Endpoint response of M4R cells to ligand,[1],not to ET-1
SDF-1α,Label-free cell response,CXCR4,rapid and robust response
same,Cell movement and morphology after stimulation,Rat MSC cells,movement of the cells is seen along with a spreading out of the cells
collagen,PWV shift of attached cells,[3],resembles background cell attachment signal
same,Cell attachment compared with other surfaces,rat MSC cell,better than the other surfaces
fibronectin,PWV shift relative to collagen or laminin surfaces,[3]; coated wells,8 to 10 times
laminin,PWV shift of attached cells,[3],resembles background cell attachment signal
